Data published in US5556840A, “2',5'-phosphorothioate oligoadenylates as anitiviral agents” (Temple University - Of The Commonwealth System of Higher …, priority 1994, dated 1996).
Entries after “also recorded” stand apart in the source; their conditions may differ. Where two headings read alike, the source gives them in different places.

What was measured:
[1] = test system: 2'-phosphodiesterase (2'-PDE), L cell extract; assay: Hydrolysis by 2'-phosphodiesterase in L cell extract; type: in vitro ADME
Text: The four 2,5-phosphorothioate adenylate trimer cores were further characterized by hydrolysis with the enzyme 2'-phosphodiesterase ("2'-PDE"), an exoribonuclease found in L cell extract The enzyme cleaves from the 2'/3'-terminus.
(§1) The metabolic stability of the 2,5'-phosphorothioate dimer and trimer cores is markedly greater than authentic 2-5A. The rate of hydrolysis of the trimer cores by the 3'-exonuclease SVPD is, in order of decreasing stability: ASp ARp A>ARp ARp A>>>A3. […] The 3'->'5'direction of stepwise cleavage by SVPD is blocked by an Sp configuration, preventing cleavage of the upstream adjacent phosphorothioate linkage. […] With both SVPD and 2'-PDE, the dimer cores (either ARp A or ASp A) accumulate following hydrolysis of the ARp ARp A, ASp ARp A and ARp ASp A trimer cores. Hydrolysis of the 2-5A molecule by SVPD and 2'-PDE proceeds from the 2'/3'-terminus. Therefore, introduction of the phosphorothioate group into the trimer core results in the accumulation of the ARp A or ASp A dimer cores from the 5'-terminus and the accumulation of AMPS from the 2'/3'-terminus (Table 3). With authentic A3, there is no detectable accumulation of A2 following hydrolysis by SVPD or 2'-PDE.

[2] = test system: HIV reverse transcriptase; assay: HIV reverse transcriptase activity; type: biochemical, HIV (HTLV-IIIB); conditions: for Percent Inhibition of HIV reverse transcriptase / Reverse Transcriptase Activity: 200 uM; for Reverse Transcriptase Activity: control 187×10^3 cpm (reactions 1-4), 273×10^3 cpm (reactions 5-13)
Procedure: HIV reverse transcriptase (RNA-dependent DNA nucleotidyl-transferase) activity was assayed by a modification of the procedure of Poiesz et al. (Poiesz, B. J., Ruscetti , F. W., Gazdar, A. F., Bunn, P. S., Minna, J. D., and Gallo, R. C., Proc. Natl. Acad. Sci. U.S.A. 77: 7415-7419 (1980)).
Cultured H-9 cells are grown at 10^6 cells/ml in RPMI-1640 medium and 20% heat-inactivated fetal calf serum. Cell suspensions are centrifuged (1000×g, 10 min.) and the supernatant is removed. Virus particles are precipitated from this cell-free supernatant to which 0.3 ml of 4M NaCl and 3.6 ml of 30% (weight/volume) polyethylene glycol are added. The suspension is placed on ice for 2 hr following centrifugation at 15,000×g for 30 min at 0° C. The precipitate is resuspended in 200 microliters of 50% glycerol (vol./vol.)/25 mM Tris-HCl (pH 7.5)/5 mM dithiothreitol/50 mM KCl/0.025% Triton X-100. Virus particles are lysed by the addition of 100 microliters of 0.9% Triton X-100/1.5M KCl. Reverse transcriptase assays are performed at 37° C. for 1 hr with 10 microliters of the lysed virus solution in a final reaction volume of 100 microliters containing: 40 mM Tris-HCl (pH 7.8), 4 mM dithiothreitol, 45 mM KCl and 2.5 micrograms of template primer [poly(A)-dT15, 0.5 micrograms/microliter] (with a signal Mg^++ concentration of 10 mM). At this time, 10 microliters of the 2',5'-phosphorothioate oligoadenylate is added to a final concentration of 200 micromolar. Reaction mixtures also contain 4 micromoles of [^3 H]dTTP. Reactions are stopped by the addition of cold 5% trichloroacetic acid and filtered through nitrocellulose discs. The discs are dried and the radioactivity bound to the discs is determined. Reverse transcriptase activity is expressed as the percent relative to a control.
The compounds were assayed in the above manner in two sets, each set having a separate set of controls. The compounds of reactions 1-4 were assayed against control #1, which was 187×10^3 cpm. The compounds used in reactions 5-13 were assayed against control #2, which was 273×10^3 cpm.

[3] = test system: tobacco mosaic virus (TMV); assay: TMV replication in intact Nicotiana glutinosa plants (local lesions); type: in vivo; conditions: for Percent TMV Inhibition: 2 × 10^-5 M in infecting solution, 48 hr after infection, half-leaves of N. glutinosa
Procedure: Carborundum (400 mesh) was sprinkled lightly onto leaves. Solutions containing 0.2 micrograms per ml of TMV and 2×10^-5 M 2',5'-phosphorothioate oligoadenylate in phosphate buffer were applied onto half-leaves of N. glutinosa with either a gloved finger or with a pipettor. The remaining half-leaves were controls (inoculated with the buffer solution containing TMV, but no active compound). The infection was allowed to proceed 48 h under continuous illumination of about 1500 Lx at which time local virus lesions appeared. Inhibition of TMV replication was calculated as the percent of local lesions produced in 2',5'-phosphorothioate oligoadenylate-treated half-leaves compared to control half-leaves.
^4 Inhibition of TMV replication was detected 48 hr after infection
and was calculated as the percent of local lesions produced in treated
halfleaves of N. glutinosa compared to control halfleaves.

serum phosphodiesterases = assay: Hydrolysis by serum phosphodiesterases
RNase L [4] = assay: Activation or inhibition of RNase L, general statements without assay named; type: biochemical
phosphodiesterases = assay: Metabolic stability, general statements; type: in vitro ADME
SVPD = assay: Hydrolysis by SVPD (snake venom phosphodiesterase); type: in vitro ADME
Procedure: It is known that the enzyme SVPD preferentially cleaves Rp-3',5'- or 2',5'-phosphorothioate linkages from the 2'/3'-terminus. Nelson et al, J. Org. Chem. 49:2314-2317 (1984); Eppstein et al, J. Biol. Chem. 261:5999-6003 (1986); Lee et al, Biochemistry 24:551-555 (1985). SVPD hydrolysis of the chemically synthesized dimer core ARp A yielded adenosine and AMPS in a molar ratio of 1:1, respectively; the half-life was 3 hours (Table 3).
as §1

RNase L [5] = assay: rRNA cleavage assay using L929 cell extracts (28S and 18S rRNA); type: biochemical, mouse; conditions: L929 cell extracts; '>' = no activation at that concentration
Procedure: Activation of RNase L by 2',5'-phosphorothioate adenylate trimer cores and their 5'-monophosphates was also measured in an rRNA cleavage assay using L929 cell extracts.
The corresponding 5'-monophosphates pARp ARp A, pASp ARp A (at 10^-8 M) and pARp ASp A (at 10^-7 M) activated RNase L to cleave 28S and 18S rRNA.

RNase L [6] = assay: Core-cellulose assay: activation of partially-purified RNase L to hydrolyze poly(U)-3'-[32P]pCp; type: biochemical, mouse; conditions: poly(U)-3'-[32P]pCp substrate
Procedure: FIG. 1B represents the results of a core-cellulose assay indicating the ability of the 2',5'-phosphorothioate adenylate trimer cores and 5'-monophosphates to activate partially-purified RNase L from L929 cell extracts to hydrolyze the substrate polY(U)-3'-[^32 P]pCp. Activation of RNase L was determined by conversion of poly (U )-3'-[^32 P]pCp to acid-soluble fragments. 100% represents 30,000 cpm of labelled poly(U)-3'-[^32 P]pCp bound to glass fiber filters. The curves are labelled in the same manner as FIG. 1A.
The 2',5'-phosphorothioate cores, with one exception, have the correct stereoconfiguration to activate RNase L. The activation of partially-purified RNase L by the 2',5'-phosphorothioates was measured according to the core-cellulose assay of Silverman, Analyt. Biochem. 144:450-460 (1985) which relies on hydrolysis of the substrate poly(U)-3-[^32 P]pCp. […] (FIG. 1B) The order of activation of the trimer cores and the corresponding 5'-monophosphates is: RpRp>SpRp>RpSp (FIG. 1B).

Row | Substance | half life, hydrolysis by L cell extract [1] | Percent Inhibition of HIV reverse transcriptase [2] | Reverse Transcriptase Activity [2] | Percent TMV Inhibition [3] | hydrolysis by serum phosphodiesterases (result in words) (serum phosphodiesterases) | effect on RNase L activation (result in words) (RNase L [4]) | metabolic stability (result in words) (phosphodiesterases) | hydrolysis by SVPD (result in words) (SVPD) | hydrolysis by SVPD (result in words) (SVPD; listed as ARp ASp A) | concentration at which RNase L was activated to cleave 28S and 18S rRNA (RNase L [5]) | inhibition of HIV reverse transcriptase (result in words) [2] | inhibition of TMV replication (result in words) ([3]; in vivo) | activation of RNase L, core-cellulose assay (result in words) (RNase L [6])
1 | (Rp)-P-Thioadenylyl-(2'-5')-(Sp)-P-thiodenylyl-(2'-5')-adenosine [Compound 10A] | 20 days | 10% | 247 10^3 cpm | 70% | not cleaved | activates RNase L | metabolicly stable | not substrates for SVPD; also recorded: not cleaved | not substrates of SVPD | > 10^-4 M |  |  | 
2 | 5'-O-Phosphoryl-(Sp)-thioadenylyl-(2'-5')-(Sp)-thioadenylyl-(2'-5')-adenosine [pASp ASp A] |  | 15% | 232 10^3 cpm | 40% |  | selectively inhibits activation of RNase L at physiological concentrations; also recorded: metabolically stable inhibitor of RNase L; also recorded: most effective inhibitor of RNase L reported to date | metabolically stable to specific and non-specific phosphodiesterases |  |  | > 10^-5 M | inhibit HIV reverse transcriptase activity and tobacco mosaic virus replication | inhibit HIV reverse transcriptase activity and tobacco mosaic virus replication | 
3 | 5'-O-Phosphoryl-(Rp)-thioadenylyl-(2'-5')-(Rp)-thioadenylyl-(2'-5')-adenosine [pARp ARp A] |  | 25% | 144 10^3 cpm | 75% |  |  | metabolically unstable and is readily attacked by phosphodiesterases |  |  | 10^-8 M |  |  | most efficient activator of RNase L
